Results as given in PMC5477036, “Design and synthesis of biphenyl and biphenyl ether inhibitors of sulfatases” (Chemical Science, 2016).

How the values were obtained:
Type in all cases: biochemical
aryl sulfatase B (ARSB) = biological target: T1, aryl sulfatase B (ARSB) (Homo sapiens, UniProt P15848); assay: ARSB inhibition assay with 4-MUS substrate; details: 1 mM compound; 4-MUS substrate; means of two or more determinations; read-out: ARSB% inh @ 1 mM
T1 construct: purchased R & D Systems
Protocol: (§1) Compounds were assayed for their ability to inhibit the Sulf-2-catalysed desulfation of 4-methylumbelliferyl sulfate (4-MUS) to the fluorescent 4-methylumbelliferone (MU). To determine their sulfatase selectivity, inhibition of aryl sulfatases A (ARSA) and B (ARSB) was also assessed. To date no suitable benchmark inhibitors of these sulfatase have been reported. […] In the majority of cases the presence of a substituent on the B-ring was detrimental to Sulf-2 inhibition when compared with unsubstituted biphenyl sulfamate 76. Aminosulfates 54 and 62 and carboxylic acid 15 retained potency. […] Compounds 8, 10, 15, 50 and 51 were also relatively potent ARSA inhibitors. […] Aminosulfates 56 and 63 were the best Sulf-2 inhibitors lacking a trichloroethylsulfamate group.
(§2) 1 – Biological assay protocols […]
(§3) Omega data analysis software.
(§4) ARSA and ARSB assay protocols
(§5) Compounds were screened in a 96-well black plate (Sterilin) using 4-MUS as a substrate, using 50 μL reaction mixture containing 40 ng of the commercially available enzymes (ARSA or ARSB from R & D Systems), 50 mM HEPES (pH = 4.5), 10 mM CaCl2, 1 mM test compound (dissolved in DMSO; final concentration of DMSO in reaction = 2%), and H2O (45 μL). The assay mixture was incubated for 1 h at 37 °C, followed by addition of 5 μL of 4-MUS (Km = 1.6 mM for ARSA and 612 μM for ARSB), and incubation for a further 1 h at 37 °C. The reaction was stopped with 100 μL of 1 M Tris (pH = 10.5) and read at 460 nm following excitation at 355 nm in FLUOstar Omega plate reader (BMG Labtech) using Omega data analysis software.

aryl sulfatase A (ARSA) = biological target: T2, aryl sulfatase A (ARSA) (Homo sapiens, UniProt P15289); assay: ARSA inhibition assay with 4-MUS substrate; details: 1 mM compound; 4-MUS substrate; means of two or more determinations; read-out: ARSA% inh @ 1 mM
T2 construct: purchased R & D Systems
T2 sequence (P15289 19-507): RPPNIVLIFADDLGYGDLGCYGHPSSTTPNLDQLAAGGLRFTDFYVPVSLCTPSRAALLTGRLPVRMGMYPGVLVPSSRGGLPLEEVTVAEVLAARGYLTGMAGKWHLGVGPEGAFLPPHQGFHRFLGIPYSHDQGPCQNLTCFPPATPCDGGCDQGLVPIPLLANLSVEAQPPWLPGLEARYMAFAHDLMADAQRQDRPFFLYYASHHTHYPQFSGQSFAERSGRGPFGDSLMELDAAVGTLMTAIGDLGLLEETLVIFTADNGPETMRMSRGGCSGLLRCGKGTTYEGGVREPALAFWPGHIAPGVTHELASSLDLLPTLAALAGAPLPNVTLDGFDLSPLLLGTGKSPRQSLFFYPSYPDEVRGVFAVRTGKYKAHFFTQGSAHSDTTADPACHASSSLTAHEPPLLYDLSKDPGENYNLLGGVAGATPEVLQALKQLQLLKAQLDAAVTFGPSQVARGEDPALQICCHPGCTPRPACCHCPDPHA
Protocol: as §1, §2, §3, §4, §5

Sulf-2 = biological target: T3, Sulf-2 (Homo sapiens, UniProt Q8IWU5); assay: Inhibition of Sulf-2-catalysed desulfation of 4-MUS to fluorescent MU; details: 1 mM compound; 4-MUS substrate; means of two or more determinations; read-out: Sulf-2% inh @ 1 mM
T3 construct: host or cells: 293T cells, transiently transfected
T3 sequence (Q8IWU5 25-870): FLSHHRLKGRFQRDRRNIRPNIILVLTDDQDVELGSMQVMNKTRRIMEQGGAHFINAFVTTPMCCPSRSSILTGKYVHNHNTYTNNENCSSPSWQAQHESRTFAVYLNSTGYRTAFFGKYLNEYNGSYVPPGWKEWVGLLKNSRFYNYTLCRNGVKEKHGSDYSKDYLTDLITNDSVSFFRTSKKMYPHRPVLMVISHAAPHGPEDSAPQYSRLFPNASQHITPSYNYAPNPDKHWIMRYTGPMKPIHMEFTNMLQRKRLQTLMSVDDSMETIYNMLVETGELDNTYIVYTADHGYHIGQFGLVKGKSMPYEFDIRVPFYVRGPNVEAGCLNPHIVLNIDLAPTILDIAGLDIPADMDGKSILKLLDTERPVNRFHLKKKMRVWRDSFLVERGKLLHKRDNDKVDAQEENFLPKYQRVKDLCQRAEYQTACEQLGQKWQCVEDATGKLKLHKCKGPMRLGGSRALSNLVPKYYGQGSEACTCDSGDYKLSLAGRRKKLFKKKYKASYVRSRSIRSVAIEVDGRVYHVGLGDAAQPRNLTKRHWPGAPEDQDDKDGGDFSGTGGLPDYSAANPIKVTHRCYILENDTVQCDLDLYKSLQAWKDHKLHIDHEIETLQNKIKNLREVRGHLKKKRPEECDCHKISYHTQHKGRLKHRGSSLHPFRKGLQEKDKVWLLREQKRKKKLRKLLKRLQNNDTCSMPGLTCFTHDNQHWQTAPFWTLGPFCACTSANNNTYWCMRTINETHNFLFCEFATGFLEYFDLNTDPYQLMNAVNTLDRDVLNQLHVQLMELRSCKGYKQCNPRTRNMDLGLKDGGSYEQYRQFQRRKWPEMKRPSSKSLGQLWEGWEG
Protocol: as §1
1 – Biological assay protocols
Compounds were screened using 4-MUS as a substrate for Sulf-2 according to a protocol described by Morimoto-Tomita et al.1 Briefly 293T cells were transiently transfected with pcDNA3.1/Myc-His(-)-HSulf-2 DNA (Addgene) and TransIT-LT1 Transfection Reagent (Mirus) using a transfection mixture at the ratio 1:3 (µg DNA:
µL transfection reagent) in Opti-MEM I reduced serum medium (Gibco). Conditioned medium containing Sulf-2 was collected after 3 days and bound to HIS-Select Nickel affinity gel (Sigma) overnight at 4 °C. Beads were washed three times with washing buffer containing 50 mM HEPES (pH 7.5), 300 mM NaCl, 0.05% Tween 20, followed by washing once with washing buffer containing no tween. Beads were suspended in 50 mM Hepes (pH 7.5) and used in inhibition assays. 20 μL of bead slurry was incubated with 1 mM compound (in DMSO) plus 10X reaction buffer (500 mM HEPES pH 7.5, 100 mM CaCl2) for 1 h at 37 °C. The reaction was started by the addition of 20 μL of 20 mM 4-MUS (final concentration of 8 mM) and incubated at 37 °C for 1 h. The reaction was stopped with 100 μL 1 M Tris buffer (pH 10.4) and read at 460 nm following excitation at 355 nm in FLUOstar Omega plate reader (BMG Labtech) using Omega data analysis software. […]

T1 sequence (P15848 37-533, species assumed): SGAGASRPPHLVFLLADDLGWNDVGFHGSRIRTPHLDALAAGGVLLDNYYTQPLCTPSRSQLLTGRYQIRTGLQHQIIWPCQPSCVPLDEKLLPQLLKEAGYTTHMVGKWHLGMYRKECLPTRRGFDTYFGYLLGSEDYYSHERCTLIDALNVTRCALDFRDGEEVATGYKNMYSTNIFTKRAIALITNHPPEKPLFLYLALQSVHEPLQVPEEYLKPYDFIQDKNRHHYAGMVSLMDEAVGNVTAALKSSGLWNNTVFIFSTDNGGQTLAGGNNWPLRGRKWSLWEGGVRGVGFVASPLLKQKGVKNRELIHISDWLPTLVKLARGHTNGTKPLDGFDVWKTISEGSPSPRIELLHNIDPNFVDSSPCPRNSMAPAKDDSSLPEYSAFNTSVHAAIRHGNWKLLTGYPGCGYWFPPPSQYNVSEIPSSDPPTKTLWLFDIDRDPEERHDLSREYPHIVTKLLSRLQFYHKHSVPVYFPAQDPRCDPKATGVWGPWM

| SMILES | inhibition at 1000 µM (aryl sulfatase B (ARSB)) [%] | inhibition at 1000 µM (aryl sulfatase A (ARSA)) [%] | inhibition at 1000 µM (Sulf-2) [%] |
| --- | --- | --- | --- |
| O=S(=O)(Nc1cccc(-c2ccccc2)c1)OCC(F)(F)F [Compound 82] | 92 | 78 | 5 |
| O=S(=O)(Nc1ccccc1)OCC(Cl)(Cl)Cl [Compound 83] | 68 | 63 | 3 |
